Data on eleven molecules can be found in patent US20160298129A1, “ALS INHIBITOR HERBICIDE TOLERANT MUTANT PLANTS” (BAYER CROPSCIENCE NV, priority 2013, published 2016).

The target of one assay is AHAS P197S (Arabidopsis thaliana, UniProt P17597, E575Q/P197S). It counts as biochemical. How it is done: (§1) Bacteria are grown at 37° C. in LB-medium containing 100 mg/l carbenicillin and 25 mg/l canamycin, induced with 1 mM isopropyl-β-D-thiogalactopyranoside at an OD600 of 0.6, cultivated for 16 hours at 18° C. and harvested by, e.g., centrifugation. Bacterial pellets are resuspended in 100 mM sodium phosphate buffer pH 7.0 containing 0.1 mM thiamine-pyrophosphate, 1 mM MgCl2, and 1 μM FAD at a concentration of 1 gram wet weight per 25 ml of buffer and disrupted by, e.g., sonification. The crude protein extract obtained after centrifugation is used for ALS activity measurements.
(§2) ALS protein can be extracted from leaves or tissue cultures, such as B. napus or B. juncea leaves, or B. napus or B. juncea tissue cultures as described by Ray (Plant Physiol, 1984, 75:827-831). An ALS assays can be carried out in 96-well microtiter plates using a modification of the procedure described by Ray (1984): The reaction mixture contains 20 mM potassium phosphate buffer pH 7.0, 20 mM sodium pyruvate, 0.45 mM thiamine-pyrophosphate, 0.45 mM MgCl2, 9 μM FAD. ALS enzyme and various concentrations of ALS inhibitors can be mixed in a final volume of 90 μl Assays can be initiated by adding enzyme and the assays can be terminated after 75 min incubation at 30° C. by the addition of 40 μl 0.5 M H2SO4.

For the next assay, the target named is AHAS W574L (Arabidopsis thaliana, UniProt P17597, E575Q/W574L). It counts as biochemical. How it is done:
as §1, §2

A further assay deals with AHAS P197S-D376E (Arabidopsis thaliana, UniProt P17597, D376E/E575Q/P197S). Nature of the assay: biochemical. As to conditions: for Resistance Factor: AHAS P197S-D376E. The protocol: as §1, §2
The target in a further assay is AHAS P197S-D376E-W574L (Arabidopsis thaliana, UniProt P17597, D376E/E575Q/P197S/W574L). Description: biochemical. Particulars: for Resistance Factor: AHAS P197S-D376E-W574L. How it is done:
as §1, §2

The target of another assay is AHAS D376E (Arabidopsis thaliana, UniProt P17597, D376E/E575Q). Nature of the assay: biochemical. Particulars: for Resistance Factor: AHAS D376E. The protocol:
as §1, §2

The next assay concerns the target AHAS D376E-W574L (Arabidopsis thaliana, UniProt P17597, D376E/E575Q/W574L). Nature of the assay: biochemical. As to conditions: for Resistance Factor: AHAS D376E-W574L. The protocol: as §1, §2
The target of the next assay is AHAS P197S-W574L (Arabidopsis thaliana, UniProt P17597, E575Q/P197S/W574L). Nature of the assay: biochemical. As to conditions: for Resistance Factor: AHAS P197S-W574L. The protocol: as §1, §2
The subject of assay [1] is wild-type (WT) oilseed rape. Description: Field herbicide tolerance, visible phytotoxicity. It counts as in vivo, Brassica napus. Particulars: gai/ha: imazamox 40, bispyribac-sodium 50, propoxycarbazone-sodium 70, mesosulfuron-methyl 60, pyroxsulam 12.5 + cloquintocet-mexyl 37.5, each + rapeseed oil methylated 366.5.
For assay [2], the system named is oilseed rape homozygous for HETO139 and HETO134 (139-134). Description: Field herbicide tolerance, visible phytotoxicity (ALS I W574L, ALS III P197S-D376E). As to conditions: gai/ha: imazamox 40, bispyribac-sodium 50, propoxycarbazone-sodium 70, mesosulfuron-methyl 60, pyroxsulam 12.5 + cloquintocet-mexyl 37.5, each + rapeseed oil methylated 366.5. It counts as in vivo, Brassica napus. From the text:
(§3) Seeds of spring oilseed rape homozygous for HETO139 and HETO134 were sown in a field according to typical practical agricultural methods together with seeds homozygous for HETO134 and HETO133 (comprising a W574L mutation on ALS III, which were obtained in the same way as HETO134), and with seeds homozygous for HETO134 and HETO132 (comprising a P197S and a W574L mutation on ALS III, which were obtained in essentially the same way as HETO139). Several ALS inhibitor herbicides were applied to the oilseed rape plants by using specific spray equipment for small plot applications.

Assay [3] deals with oilseed rape homozygous for HETO133 and HETO134 (133-134). Description: Field herbicide tolerance, visible phytotoxicity (ALS I W574L, ALS III W574L). The class given is in vivo, Brassica napus. As to conditions: gai/ha: imazamox 40, bispyribac-sodium 50, propoxycarbazone-sodium 70, mesosulfuron-methyl 60, pyroxsulam 12.5 + cloquintocet-mexyl 37.5, each + rapeseed oil methylated 366.5.
From the text: as §3

Assay [4] relates to oilseed rape homozygous for HETO132 and HETO134 (132-134). Nature of the assay: Field herbicide tolerance, visible phytotoxicity (ALS I W574L, ALS III P197S-W574L). The class given is in vivo, Brassica napus. Particulars: gai/ha: imazamox 40, bispyribac-sodium 50, propoxycarbazone-sodium 70, mesosulfuron-methyl 60, pyroxsulam 12.5 + cloquintocet-mexyl 37.5, each + rapeseed oil methylated 366.5.
From the text: as §3

By IC50 is commonly meant the concentration needed to halve the response being measured.

AHAS P197S-D376E-W574L, sequence (P17597 56-670 P197S/D376E/W574L/E575Q): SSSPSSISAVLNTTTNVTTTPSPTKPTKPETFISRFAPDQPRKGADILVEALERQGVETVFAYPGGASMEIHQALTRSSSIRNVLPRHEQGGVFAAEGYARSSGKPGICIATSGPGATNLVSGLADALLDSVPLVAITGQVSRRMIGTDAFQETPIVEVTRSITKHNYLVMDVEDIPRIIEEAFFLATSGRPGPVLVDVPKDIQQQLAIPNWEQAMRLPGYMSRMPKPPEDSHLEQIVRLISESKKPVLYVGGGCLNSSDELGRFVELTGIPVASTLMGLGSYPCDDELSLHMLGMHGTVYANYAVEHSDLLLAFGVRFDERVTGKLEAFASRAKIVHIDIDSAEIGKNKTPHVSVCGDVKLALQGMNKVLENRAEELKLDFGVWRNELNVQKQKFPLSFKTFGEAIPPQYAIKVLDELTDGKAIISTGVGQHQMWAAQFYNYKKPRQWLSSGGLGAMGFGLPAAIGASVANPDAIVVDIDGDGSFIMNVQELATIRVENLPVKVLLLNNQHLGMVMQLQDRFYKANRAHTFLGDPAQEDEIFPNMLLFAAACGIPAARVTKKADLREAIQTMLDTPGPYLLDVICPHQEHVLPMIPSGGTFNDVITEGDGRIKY
AHAS D376E, sequence (P17597 56-670 D376E/E575Q): as the sequence (P17597 56-670 P197S/D376E/W574L/E575Q) above, with S142P, L519W counted along it
AHAS P197S-W574L, sequence (P17597 56-670 P197S/W574L/E575Q): as the sequence (P17597 56-670 P197S/D376E/W574L/E575Q) above, with E321D counted along it
AHAS W574L, sequence (P17597 56-670 W574L/E575Q): as the sequence (P17597 56-670 P197S/D376E/W574L/E575Q) above, with S142P, E321D counted along it
AHAS P197S, sequence (P17597 56-670 P197S/E575Q): as the sequence (P17597 56-670 P197S/D376E/W574L/E575Q) above, with E321D, L519W counted along it
AHAS P197S-D376E, sequence (P17597 56-670 P197S/D376E/E575Q): as the sequence (P17597 56-670 P197S/D376E/W574L/E575Q) above, with L519W counted along it
AHAS D376E-W574L, sequence (P17597 56-670 D376E/W574L/E575Q): as the sequence (P17597 56-670 P197S/D376E/W574L/E575Q) above, with S142P counted along it

On to `COc1cc(OC)nc(NC(=O)NS(=O)(=O)N(C)S(C)(=O)=O)n1` [Amidosulfuron, amidosulfuron], for which the “Resistance Factor” value on AHAS P197S, at AHAS W574L, on AHAS P197S-D376E, on AHAS P197S-D376E-W574L, on AHAS D376E and at AHAS D376E-W574L was greater than 488 throughout. In addition, on AHAS P197S-W574L, the “Resistance Factor” value is recorded as greater than 488. Further, the IC50 on AHAS P197S-D376E, on AHAS P197S-D376E-W574L, at AHAS D376E, at AHAS D376E-W574L and against AHAS P197S-W574L was greater than 100 µM throughout.

In the case of `COc1cc(OC)nc(NC(=O)NS(=O)(=O)c2ncccc2C(F)(F)F)n1` [Flazasulfuron, flazasulfuron], the “Resistance Factor” value is listed as 120 at AHAS P197S; 3802 at AHAS W574L; greater than 120226 on AHAS P197S-D376E; greater than 120226 at AHAS P197S-D376E-W574L; 759 at AHAS D376E; greater than 120226 at AHAS D376E-W574L. Besides, the “Resistance Factor” value at AHAS P197S-W574L is on record as greater than 120226. Also, the IC50 on AHAS P197S-D376E is greater than 100 µM; against AHAS P197S-D376E-W574L, greater than 100 µM; at AHAS D376E, 0.631 µM; against AHAS D376E-W574L, greater than 100 µM; against AHAS P197S-W574L, greater than 100 µM.

With `COC(=O)c1ccc(C(F)(F)F)nc1S(=O)(=O)NC(=O)Nc1nc(OC)cc(OC)n1` [Flupyrsulfuron-methyl], the “Resistance Factor” value is given as greater than 47863 on AHAS P197S-D376E; greater than 47863 on AHAS P197S-D376E-W574L; 2399 on AHAS D376E; greater than 47863 on AHAS D376E-W574L; greater than 47863 on AHAS P197S-W574L.

Turning to `COC(=O)c1ccc(I)cc1S(=O)(=O)[N-]C(=O)Nc1nc(C)nc(OC)n1.[Na+]` [Iodosulfuron-methy-sodium, iodosulfuron-methyl-sodium], the “Resistance Factor” value is listed as 139 at AHAS P197S; 555 at AHAS W574L; greater than 35030 at AHAS P197S-D376E; greater than 35030 at AHAS P197S-D376E-W574L; 3503 on AHAS D376E; greater than 35030 on AHAS D376E-W574L. The “Resistance Factor” value at AHAS P197S-W574L is given as greater than 35030.

Turning to `COC(=O)c1ccc(CNS(C)(=O)=O)cc1S(=O)(=O)NC(=O)Nc1nc(OC)cc(OC)n1` [Mesosulfuron-methyl, mesosulfuron-methyl], the Percentage phytotoxicity is 76.7% in assay [1] (9 DAA); 98% in [1] (16 DAA); 96% in [1] (24 DAA); 9.3% in [2] (9 DAA); 13.3% in [2] (16 DAA); 5% in [2] (24 DAA). Also, the Percentage phytotoxicity came to 11.7% in assay [3] (9 DAA); 13.3% in assay [3] (16 DAA); 3.3% in [3] (24 DAA); 11.7% in assay [4] (9 DAA); 11.7% in assay [4] (16 DAA); 20.3% in [4] (24 DAA). Besides, the “Resistance Factor” value at AHAS P197S is given as 65; at AHAS W574L, 25770; at AHAS P197S-D376E-W574L it was greater than 64730; at AHAS D376E, 12915; on AHAS D376E-W574L, greater than 64730; at AHAS P197S-W574L it was greater than 64730.

On to `COc1cc(OC)n2nc(S(=O)(=O)Nc3c(Cl)ccc(C)c3Cl)nc2n1` [Metosulam, metosulam], for which the “Resistance Factor” value at AHAS P197S is recorded as 457; on AHAS W574L, 5754; at AHAS P197S-D376E it was greater than 28840; on AHAS P197S-D376E-W574L, greater than 28840; at AHAS D376E, 575; at AHAS D376E-W574L, greater than 28840. On AHAS P197S-W574L, the “Resistance Factor” value is reported as greater than 28840. The IC50 at AHAS P197S-D376E is greater than 100 µM; at AHAS P197S-D376E-W574L, greater than 100 µM; on AHAS D376E it was 2 µM; at AHAS D376E-W574L, greater than 100 µM; on AHAS P197S-W574L, greater than 100 µM.

`COC(=O)c1ccccc1S(=O)(=O)NC(=O)Nc1nc(C)nc(OC)n1` [Metsulfuron-methyl, metsulfuron-methyl]: the “Resistance Factor” value at AHAS P197S is on record as 38; at AHAS W574L, 755; at AHAS P197S-D376E it was greater than 7547; at AHAS P197S-D376E-W574L, greater than 7547; on AHAS D376E, 239; on AHAS D376E-W574L, greater than 7547. Further, the “Resistance Factor” value at AHAS P197S-W574L is greater than 7547.

As for `CCCOc1nn(C(=O)[N-]S(=O)(=O)c2ccccc2C(=O)OC)c(=O)n1C.[Na+]` [PROPOXYCARBAZONE-SODIUM, propoxycarbazone-sodium], the Percentage phytotoxicity in [1] (9 DAA) is listed as 76.7%; in assay [1] (16 DAA), 97%; in assay [1] (24 DAA), 97.7%; in assay [2] (9 DAA), 15%; in assay [2] (16 DAA), 20%; in assay [2] (24 DAA), 1.7%. The Percentage phytotoxicity in [3] (9 DAA) was 53.3%; in assay [3] (16 DAA), 82.7%; in assay [3] (24 DAA), 76.7%; in assay [4] (9 DAA), 40%; in assay [4] (16 DAA) it was 36.7%; in assay [4] (24 DAA) it was 11.7%.

For the molecule `CCCOc1nn(C(=O)[N-]S(=O)(=O)c2ccccc2C(=O)OC)c(=O)n1C.[Na+]` [Propoxycarbazone], the “Resistance Factor” value on AHAS P197S is given as 147; on AHAS W574L, 293; at AHAS P197S-D376E it was greater than 4641; at AHAS P197S-D376E-W574L, greater than 4641; on AHAS D376E, 1468; on AHAS D376E-W574L it was greater than 4641. Moreover, the “Resistance Factor” value on AHAS P197S-W574L is greater than 4641.

On to `COC(=O)c1csc(C)c1S(=O)(=O)NC(=O)n1nc(OC)n(C)c1=O` [Thiencarbazone-methyl, thiencarbazone-methyl], for which the “Resistance Factor” value at AHAS P197S is listed as 1173; at AHAS W574L it was 1173; at AHAS P197S-D376E, greater than 7399; at AHAS P197S-D376E-W574L, greater than 7399; on AHAS D376E it was 371; at AHAS D376E-W574L it was greater than 7399. At AHAS P197S-W574L, the “Resistance Factor” value was greater than 7399.

Take `COC(=O)c1sccc1S(=O)(=O)NC(=O)Nc1nc(C)nc(OC)n1` [Thifensulfuron-Methyl, thifensulfuron-methyl]: the “Resistance Factor” value on AHAS P197S was 200; on AHAS W574L it was 1585; on AHAS P197S-D376E, greater than 2511; at AHAS P197S-D376E-W574L it was greater than 2511; at AHAS D376E, 631; at AHAS D376E-W574L it was greater than 2511. The “Resistance Factor” value on AHAS P197S-W574L was greater than 2511. Besides, the IC50 is greater than 100 µM at AHAS P197S-D376E; greater than 100 µM at AHAS P197S-D376E-W574L; 25.1 µM on AHAS D376E; greater than 100 µM against AHAS D376E-W574L; greater than 100 µM against AHAS P197S-W574L.
